Experimental data: article PMC5125695, “Antiviral Efficacy of Verdinexor In Vivo in Two Animal Models of Influenza A Virus Infection” (PLoS ONE, 2016)
Like-named read-outs stand apart in the source and are kept apart here.

Assays:
[1] = tested on: A/California/04/09; design: species or system ferrets; settings: in vivo
[2] = tested on: A/California/04/09; design: species or system ferrets; settings: in vivo; remark: listed apart in the source
[3] = mice, 20 mg/kg at day 1 and 3; data not shown
[4] = tested on: A/California/04/09; assay type: in vivo, ferrets
[5] = tested on: A/California/04/09; design: species or system ferrets; settings: in vivo; remark: listed apart in the source
[6] = tested on: various influenza A and B virus strains; settings: cited from earlier work
[7] = tested on: A/California/04/09-MA; settings: cited from earlier work
[8] = human, in vivo; cited from earlier work
[9] = in vivo
[10] = in vivo; settings: male, po, 5 mg/kg
[11] = preliminary results, phase I and II studies; cited from earlier work

O=C(/C=C\n1cnc(-c2cc(C(F)(F)F)cc(C(F)(F)F)c2)n1)NNc1ccccn1 [verdinexor]
Lung virus titers at day 4 pi ([1]; 10 mg/kg): considerably (p≤0.001) reduced lung virus titers
Lung virus titers at day 4 pi ([1]; 15 mg/kg): considerably (p≤0.001) reduced lung virus titers
Lung virus titers at day 4 pi ([1]; 25 mg/kg): considerably (p≤0.001) reduced lung virus titers
Infiltrating leukocytes in nasal washes at day 2 pi [2]: Lower numbers of infiltrating leukocytes
Infiltrating leukocytes in nasal washes at day 4 pi ([2]; 10 mg/kg): significant (p≤0.05) reduction
Infiltrating leukocytes in nasal washes at day 4 pi ([2]; 25 mg/kg): significant (p≤0.05) reduction
Efficacy and tolerability of the treatment regimen [3]: most efficacious yet well tolerated
IFN-γ expression in nasal exudates at day 2 and 4 pi ([4]; […], not statistically significant): trend toward reduced IFN-γ expression
IL-12p40 expression in nasal exudates at day 2 pi ([4]; in vivo, 10 mg/kg): reduced IL-12p40 expression
IL-12p40 expression in nasal exudates at day 2 pi ([4]; in vivo, 25 mg/kg): reduced IL-12p40 expression
TNF-α expression in nasal exudates at day 2 pi ([4]; in vivo, 25 mg/kg): reduced TNF-α expression
Influenza-associated lung pathology and inflammation ([5]; 10 mg/kg): significant amelioration
Lung score of the representative animal (range 0–4) ([5]; 10 mg/kg): 2
Influenza-associated lung pathology and inflammation ([5]; 15 mg/kg): limited reduction in pathology
Lung score of the representative animal (range 0–4) ([5]; 15 mg/kg): 2
Influenza-associated lung pathology and inflammation ([5]; 25 mg/kg): significant amelioration
Lung score of the representative animal (range 0–4) ([5]; 25 mg/kg): 2
Replication of various influenza A and B virus strains [6]: effective to inhibit the replication
Virus burden and inflammatory cytokines expression in lungs ([7]; mice infected with A/California/04/09-MA): efficacious in limiting virus burden and inflammatory cytokines expression
Lung pathology and mortality upon lethal virus infection ([7]; mice, oral verdinexor): reduced lung pathology and mortality
Safety and tolerability in a phase I clinical trial [8]: safe and well-tolerated
Clearance from the plasma [9]: more rapidly cleared from the plasma compared to mice
Oral bioavailability ([9]; po): orally bioavailable
AUC(0-inf) [10]: 3510 ng·h/mL
AUC(0-t) [10]: 3510 ng·h/mL
Cmax [10]: 1490 ng/mL
Tmax [10]: 0.361 h
half-life [10]: 1.84 h

CCOC(=O)C1=C[C@@H](OC(CC)CC)[C@H](NC(C)=O)[C@@H](N)C1 [oseltamivir, reference compound]
Lung virus titers at day 4 pi [1]: considerably (p≤0.001) reduced lung virus titers
Infiltrating leukocytes in nasal washes at day 2 pi [2]: Lower numbers of infiltrating leukocytes
IFN-γ expression in nasal exudates at day 2 and 4 pi ([4]; in vivo): trend toward reduced IFN-γ expression
IL-12p40 expression in nasal exudates at day 2 pi ([4]; in vivo): reduced IL-12p40 expression
TNF-α expression in nasal exudates at day 2 pi ([4]; in vivo): reduced TNF-α expression
Influenza-associated lung pathology and inflammation [5]: limited reduction in pathology
Lung score of the representative animal (range 0–4) [5]: 3

O=C(/C=C\n1cnc(-c2cc(C(F)(F)F)cc(C(F)(F)F)c2)n1)NNc1cnccn1 [selinexor]
Anti-cancer activity in human patients [11]: evidence of anti-cancer activity
Oral exposure in human patients [11]: good oral exposure
